Measured values published in patent US20220144812A1, “QUINOLINE DERIVATIVES AND THEIR USE FOR THE TREATMENT OF CANCER” (Epizyme, Inc., priority 2019, published 2022).
Where two headings read alike, the source gives them in different places.

Key:
CREBBP (1084-1701) = target: T1, CREBBP (1084-1701) (Homo sapiens, UniProt Q92793); assay: Biochemical assay for CREBBP (1084-1701), SAMDI; details: SAMDI, read-out: CREBBP Biochemistry IC50
T1 construct: measured in the following biochemical assay using CREBBP (1084-1701); purchased
From the text: The following example describes materials and methods relating to a biochemical assay for CREBBP (1084-1701). IC50 values (micromolar (μM)) are summarized in Table 1, Table 2, and Table 3 under the column labeled: “CREBBP Biochemistry IC50 (micromolar).”
MATERIALS: Reagents 1M Tris pH 8.0, Tween 20 10%, DTT, bovine serum gelatin (BSG) 2%, Peptide #233 (biotin-H3 11-25, K14R, K23R), Acetyl-CoA, CREBBP (1084-1701), formic acid (100%), and sodium bicarbonate were commercially available.
METHODS: The effect of compounds was measured in the following biochemical assay using CREBBP (1084-1701). Enzyme mix 30 μL per well was added using a Multi-drop to wells of prepared Compound Stock plate. The enzyme was incubated in the Compound Stock plate for 30 minutes at room temperature. Substrate mix, 20 μL per well, was added to Compound Stock plate using a Multi-drop. The plate was covered and incubate 30 minutes at room temperature. The reaction was stopped with addition of 5 μL per well of 5% formic acid using a Multi-drop. The plate was Incubated for 30 minutes at room temperature. The reaction mixture was neutralized with addition of 5 μL per well of 10% sodium bicarbonate using a Multi-drop. The plate was Incubated for 35 minutes at room temperature. The reaction mixture was Transferred 2.5 μL per well to a SAMDI biochip. The plate was Incubated for 60 minutes at room temperature. The samples were washed, dried, and matrix applied to SAMDI biochip. The SAMDI biochip was then read on the mass spectrometer.

[1] = test system: H3K18Ac in HB-CLS-2 cells; assay: H3K18AC in-cell western (ICW) assay; assay type: cell-based; details: H3K18Ac in-cell western, read-out: CREBBP ICW IC50
From the text: The following example describes methods and materials relating to an H3K18AC in-cell western assay. IC50 values (micromolar (μM)) are summarized in Table 1, Table 2, and Table 3 under the column labeled: “CREBBP ICW IC50 (micromolar).”
MATERIALS: HB-CLS-2 cell line, DMEM: Ham's F12 medium (1:1 mixture), penicillin-streptomycin, heat inactivated fetal bovine serum, D-PBS, Odyssey blocking buffer, 800CW goat anti-rabbit IgG (H+L) antibody, Licor Odyssey CLx Infrared Scanner, H3K18Ac rabbit monoclonal antibody. DRAQS fluorescent probe solution (5 mM), and 100% methanol were commercially available. HB-CLS-2 adherent cells were maintained in complete growth medium (DMEM: Ham's F12 supplemented with 10% v/v heat inactivated fetal bovine serum) and cultured at 37° C. under 5% CO2.
METHOD: Cell Treatment, ICW for detection of H3K18Ac and DNA content. HB-CLS-2 cells were seeded in assay medium (DMEM: Ham's F12 supplemented with 10% v/v heat inactivated fetal bovine serum and 1% Penicillin/Streptomycin) at a concentration of 80,000 cells per mL in a Poly-D-Lysine coated 384-well culture plates at 50 μL per well. Plates were incubated at room temperature for 30 minutes and then incubated at 37° C., 5% CO2 for additional 16-24 hours. Compounds and DMSO normalization were then added directly to the plates using a D300 Digital Dispenser and returned to the incubator at 37° C., 5% CO2 for 2 hrs. After the incubation, the contents of the plates were discarded into the appropriate waste stream and blotted on laboratory tissue to remove residual liquid. 90 μL per well of 100% ice cold methanol was added to the plates and incubated at room temperature for 15 minutes. Then methanol was then discarded into the appropriate waste stream and the plates again blotted on laboratory tissue to remove residual liquid. Plates were transferred to a Biotek 405 plate washer and washed 3 times with 100 μL per well of wash buffer (1X PBS containing 0.1% Triton X-100 (v/v)). Next, 50 μL per well of Odyssey blocking buffer with 0.1% Tween 20 (v/v) was added to each plate and incubated for 1 hour at room temperature. Blocking buffer was removed and 20 μL of primary antibody were added (α-H3K18Ac diluted 1:800 in Odyssey buffer with 0.1% Tween 20 (v/v)) and plates were incubated overnight (16 hours) at 4° C. Plates were washed 5 times with 100 μL per well of wash buffer. Next 20 μL per well of secondary antibody was added (1:400 800CW goat anti-rabbit IgG (H+L) antibody, 1:2000 DRAQ5 in Odyssey buffer with 0.1% Tween 20 (v/v)) and incubated for 1 hour at room temperature. The plates were washed 3 times with 100 μL per well wash buffer then 3 times with 100 μL per well of water. Plates were allowed to dry at room temperature then imaged on the Licor Odyssey CLx machine which measured integrated intensity at 700 nm and 800 nm wavelengths. Both 700 and 800 channels were scanned.

T1 sequence (Q92793 1084-1701): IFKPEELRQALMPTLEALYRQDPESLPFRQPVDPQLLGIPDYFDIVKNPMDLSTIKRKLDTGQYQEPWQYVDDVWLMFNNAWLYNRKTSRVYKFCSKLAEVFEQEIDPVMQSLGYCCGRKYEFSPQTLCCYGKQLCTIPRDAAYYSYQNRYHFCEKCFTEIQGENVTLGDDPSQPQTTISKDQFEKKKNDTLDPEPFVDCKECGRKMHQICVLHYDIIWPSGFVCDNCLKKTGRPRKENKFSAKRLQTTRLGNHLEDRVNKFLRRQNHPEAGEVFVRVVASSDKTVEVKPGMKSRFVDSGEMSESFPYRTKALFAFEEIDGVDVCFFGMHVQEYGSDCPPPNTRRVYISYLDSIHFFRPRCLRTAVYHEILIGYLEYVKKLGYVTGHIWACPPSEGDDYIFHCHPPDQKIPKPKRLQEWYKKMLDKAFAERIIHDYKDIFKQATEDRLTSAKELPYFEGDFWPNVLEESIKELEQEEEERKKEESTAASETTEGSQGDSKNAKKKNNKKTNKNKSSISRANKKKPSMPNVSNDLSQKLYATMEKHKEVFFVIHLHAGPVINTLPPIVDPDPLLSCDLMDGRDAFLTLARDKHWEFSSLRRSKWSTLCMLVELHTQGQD

| Structure (SMILES) | IC50 (CREBBP (1084-1701)) [µM] | IC50 [1] [µM] | IC50 ([1]; HB-CLS-2 cells) [µM] |
| --- | --- | --- | --- |
| CCn1ncc(CN(C)C(=O)c2cc(-c3ccccc3Cl)nc3ccc(Cl)cc23)c1C [Compound 95] | 0.25 | 1.8 |  |
| CCn1ncc(CN(C)C(=O)c2nc(-c3cnn(CCNC)c3)nc3ccc(Cl)cc23)c1C [Compound 213] | 135 |  | 20 |
| Cc1c(CN(C)C(=O)c2nc(-c3ccccc3Cl)nc3ccc(Cl)cc23)cnn1C(C)C [Compound 279] | 0.082 |  | 0.76 |
| CCn1ncc(CN(C)C(=O)c2cc(-c3ccccc3)nc3ccc(C)cc23)c1C [Compound 150] | 6.6 | 8.2 |  |
| CCn1ncc(CN(C)C(=O)c2nc(-c3ccccc3F)nc3ccc(Cl)cc23)c1C [Compound 335] | 0.53 |  | 1.5 |
| CCn1ncc(CN(C)C(=O)c2cc(-c3cccc(Cl)c3)nc3ccc(C)cc23)c1C [Compound 126] | 0.98 | 4.3 |  |
| CCn1ncc(CN(C)C(=O)c2nc(-c3cnn(CCCNC)c3)nc3ccc(Cl)cc23)c1C [Compound 250] | 121 |  | 20 |
| CCn1ncc(CN(C)C(=O)c2nc(-c3ccc(C)cc3)nc3ccc(Cl)cc23)c1C [Compound 282] | 5.5 |  | 11 |
| CCn1ncc(CN(C)C(=O)c2cc(-c3ccccc3Cl)nc3c(C)cc(Cl)cc23)c1C [Compound 350] | 0.63 |  | 6.4 |
| CCn1ncc(CN(C)C(=O)c2nc(-c3cccc(C#N)c3)nc3ccc(Cl)cc23)c1C [Compound 301] | 2 |  | 3.9 |
| CCn1ncc(CN(C)C(=O)c2cc(-c3ccccc3OC)nc3ccc(Cl)cc23)c1C [Compound 98] | 0.4 | 2 |  |
| CCn1ncc(CN(C)C(=O)c2nc(-c3cnn(C4CCNC4)c3)nc3ccc(Cl)cc23)c1C (stereo not shown) [Compound 206] | 192 |  | 20 |
| CCn1ncc(CN(C)C(=O)c2cc(-c3cccc(Cl)c3)nc3ccc(NC)cc23)c1C [Compound 330] | 9 |  | 17 |
| CCc1noc(CN(C)C(=O)c2nc(-c3ccccc3Cl)nc3ccc(Cl)cc23)c1C [Compound 356] | 0.4 |  | 1.9 |
| CCn1ncc(CN(C)C(=O)c2nc(-c3ccc(OCCCN(C)C(=O)OC(C)(C)C)cc3)nc3ccc(Cl)cc23)c1C [Compound 242] | 57 |  | 20 |
| CCn1ncc(CN(C)C(=O)c2cc(-c3cccc(Cl)c3)nc3ccc(N(C)C)cc23)c1C [Compound 369] | 5.5 |  | 15 |
| CCn1ncc(CN(C)C(=O)c2nc(-c3cccc(F)c3)nc3ccc(Cl)cc23)c1C [Compound 316] | 0.35 |  | 1.7 |
| CCN(Cc1cnn(CC)c1C)C(=O)c1nc(-c2cccc(Cl)c2)nc2ccc(Cl)cc12 [Compound 347] | 0.53 |  | 5.6 |
| CCn1ncc(CN(C)C(=O)c2nc(-c3cccc(Cl)c3)nc3ccc(COC)cc23)c1C [Compound 357] | 0.028 |  | 0.72 |

| Structure (SMILES) | IC50 (CREBBP (1084-1701)) [µM] | IC50 [1] [µM] | IC50 ([1]; HB-CLS-2 cells) [µM] |
| --- | --- | --- | --- |
| CCn1ncc(CN(C)C(=O)c2nc(-c3cc(Cl)ccc3Cl)nc3ccc(Cl)cc23)c1C [Compound 297] | 1.8 |  | 3.2 |
| CCn1ncc(CN(C)C(=O)c2nc(-c3cscn3)nc3ccc(Cl)cc23)c1C [Compound 313] | 1.9 |  | 1.9 |
| CCn1ncc(CN(C)C(=O)c2nc(-c3cccc(C)c3)nc3ccc(Cl)cc23)c1C [Compound 317] | 0.23 |  | 1.5 |
| CCn1ncc(CN(C)C(=O)c2nc(-c3cnn(CCCO)c3)nc3ccc(Cl)cc23)c1C [Compound 212] | 96 |  | 20 |
| CCn1ncc(CN(C)C(=O)c2cc(-c3cn(CCCNC(=O)OC(C)(C)C)cn3)nc3ccc(Cl)cc23)c1C [Compound 243] | 99 |  | 20 |
| CCn1ncc(CN(C)C(=O)c2nc(-c3ccccc3C)nc3ccc(Cl)cc23)c1C [Compound 362] | 0.71 |  | 1.2 |
| CCn1ncc(CN(C)C(=O)c2nc(-c3ccc(OC)cc3)nc3ccc(Cl)cc23)c1C [Compound 373] | 2.3 |  | 4.5 |
| CCn1ncc(CN(C)C(=O)c2nc(-c3ccccc3Cl)nc3ccc(COC)cc23)c1C [Compound 276] | 0.62 |  | 1.5 |
| CCn1ncc(CN(C)C(=O)c2nc(-c3cn[nH]c3)nc3ccc(Cl)cc23)c1C [Compound 358] | 16 |  | 13 |
| CCn1ncc(CN(C)C(=O)c2nc(-c3cccc(Cl)c3Cl)nc3ccc(Cl)cc23)c1C [Compound 259] | 0.0026 |  | 0.18 |
| CCn1ncc(CN(C)C(=O)c2nc(-c3ccccc3C#N)nc3ccc(Cl)cc23)c1C [Compound 294] | 0.22 |  | 0.57 |
| Cc1c(CN(C)C(=O)c2nc(-c3cccc(Cl)c3)nc3ccc(Cl)cc23)cnn1C(C)C [Compound 299] | 0.028 |  | 0.61 |
| CCn1ncc(CN(C)C(=O)c2nc(Cc3ccccc3)nc3ccc(Cl)cc23)c1C [Compound 225] | 96 |  | 20 |
| CCN(Cc1cnn(CC)c1C)C(=O)c1cc(-c2ccccc2Cl)nc2ccc(Cl)cc12 [Compound 302] | 2.5 |  | 8.9 |
| CCn1ncc(CN(C)C(=O)c2cc(-c3ccccc3)nc3ccc(Cl)cc23)c1C [Compound 140] | 3.9 | 6.1 |  |
| CCn1ncc(CN(C)C(=O)c2cc(-c3ccccc3Cl)nc3cc(Cl)c(Cl)cc23)c1C [Compound 97] | 0.47 | 1.9 |  |
| CCn1ncc(CN(C)C(=O)c2nc(-c3ccccc3Cl)nc3cc(C)c(Cl)cc23)c1C [Compound 359] | 0.4 |  | 1 |
| CCn1ncc(CN(C)C(=O)c2nc(-c3cccc(Br)c3)nc3ccc(Cl)cc23)c1C [Compound 283] | 0.00089 |  | 0.67 |
| CCn1ncc(CN(C)C(=O)c2nc(-c3cccc(Cl)n3)nc3ccc(Cl)cc23)c1C [Compound 260] | 1.7 |  | 3.6 |
